Assay results published in ChEMBL document CHEMBL3608252, “Dietziamides, novel tetramic acid dimers from Dietzia timorensis MZ-3 with antioxidative activity” (Bioorg Med Chem Lett, 2015).
Calls of active or inactive are those of the source. The calls are words filed in the database; no cut-off is given here.

Tests used:
Bacillus subtilis = assay: Antimicrobial activity against Bacillus subtilis assessed as growth inhibition at 1.25 to 10 ug/disk incubated for 1 to 2 days by disk diffusion assay; type: functional, organism-based
Saccharomyces cerevisiae = assay: Antimicrobial activity against Saccharomyces cerevisiae assessed as growth inhibition at 1.25 to 10 ug/disk incubated for 1 to 2 days by disk diffusion assay; type: functional, organism-based
Candida albicans = assay: Antimicrobial activity against Candida albicans assessed as growth inhibition at 1.25 to 10 ug/disk incubated for 1 to 2 days by disk diffusion assay; type: functional, organism-based
[1] = Antioxidant activity assessed as DPPH redical scavenging activity incubated for 2 hrs in dark condition; type: physicochemical
P388 = assay: Cytotoxicity against mouse P388 cells at 0.78 to 100 uM after 4 days by MTT assay; type: functional, cell-based

SMILES | growth inhibition (GI) (Bacillus subtilis) | growth inhibition (GI) (Saccharomyces cerevisiae) | growth inhibition (GI) (Candida albicans) | IC50 [1] [µM] | Activity (P388)
C/C=C1\NC(=O)C(CC2=C(O)/C(=C/C)NC2=O)=C1O | inactive | inactive | inactive | 34 | inactive
O=C1O[C@H]([C@@H](O)CO)C(O)=C1O [ASCORBIC ACID] | – | – | – | 13 | –
C/C=C1\NC(=O)C(C(C2=C(O)/C(=C/C)NC2=O)[C@H](O)CO)=C1O (stereo partly specified) | inactive | inactive | inactive | 37 | inactive
